Test results: patent US12209079B2 (GENERAL INCORPORATED ASSOCIATION PHARMA VALLEY PROJECT …, priority 2017, dated 2025)

Legend:
[1] = molecular target: rhTDO (recombinant human TDO) (Homo sapiens, UniProt P48775); experiment: Enzyme assay using rhTDO (rate of kynurenine production); type: biochemical; conditions: 2 h; final concentration of the compound 10 μM; rate relative to reaction without compound; read-out: rhTDO-mediated kynurenine production
Summary of the method: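 Kynurenine output, as percent of untreated control after background subtraction, read at 490 nm with p-dimethylbenzaldehyde following TCA quench and 15 min heating at 50 °C. Reaction: rhTDO with compound, 10 min preincubation then 120 min at 37 °C, started by 20 mM tryptophan stock, in phosphate/ascorbate/methylene blue/catalase.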

TDO in A172 cells = molecular target: T1, TDO in A172 cells (Homo sapiens, UniProt P48775); experiment: TDO cell-based assay, kynurenine production in A172 cells; conditions: A 172; final concentration of the compound 10 μM; rate relative to culture without compound
T1 construct: endogenous in cells; host or cells: A172 cells
Summary of the method: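 A172 cells were preincubated with compound for 1 h, then given L-tryptophan (final 524 μM) for 24 h at 37 °C. Kynurenine was read at 460 nm after p-dimethylbenzaldehyde/TCA reagent, background-subtracted, and expressed as % of no-compound production.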

[2] = test system: subcutaneous CT-26WT syngeneic graft of large intestine cancer; experiment: Drug efficacy test, combined use of compound 1, 15 or 29 and oxaliplatin, mice with subcutaneous CT-26WT syngeneic graft (Test Example 4); type: in vivo, mouse; conditions: 40 mg/kg oral twice a day, combined with oxaliplatin 10 mg/kg i.v.; Balb/c mice; FIG. 3
Protocol: Drug Efficacy Test on Combined Use of Compound 1, Compound 15 or Compound 29 and Oxaliplatin Using Mice with Subcutaneous CT-26WT Syngeneic Graft of Large Intestine Cancer
5×10^5 cells of syngeneic large intestine cancer cell line CT26WT were subcutaneously transplanted to each of 6-week-old female Balb/c mice. The mice were divided into 5 groups each involving 6 individuals 10 days later when the average tumor size was 139 mm^3. The oral administration (solvent for oral administration and 40 mg/kg each of compound 1, compound 15 and compound 29 were administered twice a day at a 5-hour interval from days 1 to 5 and days 8 to 12) and intravenous injection (5% glucose solution and 10 mg/kg oxaliplatin were administered once a day on days 1 and 8) of each agent were started. Then, the major axis and minor axis of subcutaneous tumor were measured three times a week using calipers, and a mean and standard error of the mean of the ratios of the calculated volumes to the volumes at the administration start day in each group were plotted. The calculation expression was Volume (mm^3)=[Width^2 (mm^2)×Length (mm)]/2. The solvent group, compound 1 and compound 15 were each dissolved in a solvent for oral administration of DMSO:PEG400:PBS=10:40:150, and compound 29 was dissolved in a solvent for oral administration of DMSO:PEG400:PBS=20:80:50.
∘: the solvent for oral administration and the 5% glucose solution, •: the solvent for oral administration and oxaliplatin, ▴: compound 1 and oxaliplatin, ▪: compound 15 and oxaliplatin, and x: compound 29 and oxaliplatin.

[3] = test system: subcutaneous CT-26WT syngeneic graft of large intestine cancer; experiment: Drug efficacy test, combined use of compound 103 and anti-PD1 antibody, mice with subcutaneous CT-26WT syngeneic graft (Test Example 7); type: in vivo, mouse; conditions: 40 mg/kg oral twice a day, combined with anti-PD1 antibody 200 μg/individual i.p.; Balb/c mice; FIG. 6
Protocol: Drug Efficacy Test on Combined Use of Compound 103 and Anti-PD1 Antibody Using Mice with Subcutaneous CT-26WT Syngeneic Graft of Large Intestine Cancer
5×10^5 cells of syngeneic large intestine cancer cell line CT26WT were subcutaneously transplanted to each of 6-week-old female Balb/c mice. The mice were divided into 3 groups each involving 8 individuals 10 days later when the average tumor size was 176 mm^3. The oral administration (40 mg/kg of compound 103 was administered twice a day at a 5-hour interval from days 1 to 5 and days 8 to 12), intravenous administration (5% glucose solution was administered once a day on days 1 and 8) and intraperitoneal administration (PBS and 200 μg/individual of an anti-PD1 antibody were administered once a day on days 1 and 8) of each agent were started. Then, the major axis and minor axis of subcutaneous tumor were measured three times a week using calipers, and a mean and standard error of the mean of the calculated volumes in each group were plotted. The calculation expression was Volume (mm^3)=[Width^2 (mm^2)×Length (mm)]/2. Compound 103 was suspended in 0.5% methyl cellulose.
• with the solid line: the 5% glucose solution and PBS, X with the dotted line: the 5% glucose solution and the anti-PD1 antibody, and ∘ with the solid line: compound 103 and the anti-PD1 antibody.

rhTDO (recombinant human TDO), sequence (P48775 whole entry): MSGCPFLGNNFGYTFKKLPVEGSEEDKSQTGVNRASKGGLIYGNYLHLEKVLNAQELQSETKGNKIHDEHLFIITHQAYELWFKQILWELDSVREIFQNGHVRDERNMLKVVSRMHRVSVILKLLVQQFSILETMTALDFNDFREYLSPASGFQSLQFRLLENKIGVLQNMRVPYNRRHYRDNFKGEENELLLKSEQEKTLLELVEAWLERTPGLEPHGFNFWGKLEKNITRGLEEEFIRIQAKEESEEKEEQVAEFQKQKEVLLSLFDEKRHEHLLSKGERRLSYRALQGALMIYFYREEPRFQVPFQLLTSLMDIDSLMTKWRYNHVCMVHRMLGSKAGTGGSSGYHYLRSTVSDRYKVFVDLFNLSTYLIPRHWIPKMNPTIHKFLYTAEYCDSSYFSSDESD
T1 sequence (P48775 whole entry): as above

remaining activity at 10 µM [1]	remaining activity at 10 µM (TDO in A172 cells)	Structure (SMILES)	tumor growth (ratio of tumor volume to start day) [2]	tumor growth (tumor volume) [3]
17%	20%	Br.Br.N=C(N)SCc1ccsc1CSC(=N)N [Compound 31, thiophene-2,3-diylbis(methylene) dicarbamimidothioate dihydrobromide]		
13%	-3%	Cl.Cl.N=C(N)SCc1ccccc1CSC(=N)N [Compound 1, 1,2-phenylenebis(methylene) dicarbamimidothioate dihydrochloride]	can suppress tumor growth	
12%	7%	Br.Br.N=C(N)SCc1cscc1CSC(=N)N [Compound 15, thiophene-3,4-diylbis(methylene) dicarbamimidothioate dihydrobromide]	can suppress tumor growth	
15%	0%	c1ccc(CSC2=NCN(CC3CCCCC3)CN2)c(CSC2=NCN(CC3CCCCC3)CN2)c1 [Compound 29, 1,2-bis(((5-(cyclohexylmethyl)-1,4,5,6-tetrahydro-1,3,5-triazin-2-yl)thio)methyl)benzene]	can suppress tumor growth	
4%	4%	Clc1cc(CSC2=NCN(CC3CCCCC3)CN2)c(CSC2=NCN(CC3CCCCC3)CN2)cc1Cl [Compound 50, 6,6′-(((4,5-Dichloro-1,2-phenylene)bis(methylene))bis(sulfanediyl))bis(3-(cyclohexylmethyl)-1,2,3,4-tetrahydro-1,3,5-triazine)]		
3%	2%	Br.Br.N=C(N)SCc1ccc(Br)cc1CSC(=N)N [Compound 10, (4-bromo-1,2-phenylene)bis(methylene) dicarbamimidothioate dihydrobromide]		
5%	5%	Brc1ccc(CSC2=NCN(CC3CCCCC3)CN2)c(CSC2=NCN(CC3CCCCC3)CN2)c1 [Compound 52, 6,6′-(((4-Bromo-1,2-phenylene)bis(methylene))bis(sulfanediyl))bis(3-(cyclohexylmethyl)-1,2,3,4-tetrahydro-1,3,5-triazine)]		
3%	-1%	Br.Br.N=C(N)SCc1ccc(Cl)cc1CSC(=N)N [Compound 7, (4-chloro-1,2-phenylene)bis(methylene) dicarbamimidothioate dihydrobromide]		
6%	-7%	Br.Br.N/C(=N\c1ccc(F)cc1F)SCc1ccccc1CS/C(N)=N/c1ccc(F)cc1F [Compound 95, 1,2-Phenylenebis(methylene) (E,E)-bis(N-(2,4-difluorophenyl)carbamimidothioate)dihydrobromide]		
6%	7%	Br.Br.N=C(N)SCc1ccc(F)cc1CSC(=N)N [Compound 2, (4-fluoro-1,2-phenylene)bis(methylene) dicarbamimidothioate dihydrobromide]		
15%	8%	N/C(=N\c1ccc(Br)cc1)SCc1ccc(Br)cc1CS/C(N)=N/c1ccc(Br)cc1 [Compound 49, (4-Bromo-1,2-phenylene)bis(methylene) (E,E)-bis(N′-(4-bromophenyl)carbamimidothioate)]		

Structure (SMILES)	remaining activity at 10 µM [1]	remaining activity at 10 µM (TDO in A172 cells)	tumor growth (ratio of tumor volume to start day) [2]	tumor growth (tumor volume) [3]
Cl.Cl.c1ccc(CCN2CN=C(SCc3cscc3CSC3=NCN(CCc4ccccc4)CN3)NC2)cc1 [Compound 33, 3,4-Bis{[(5-phenethyl-1,4,5,6-tetrahydro-1,3,5-triazin-2-yl)thio]methyl}thiophene dihydrochloride]	21%	4%		
Br.N#Cc1ccc(CNC(=O)c2ccc(Br)cc2CSC(=N)N)cc1 [Compound 76, 5-Bromo-2-((4-cyanobenzyl)carbamoyl)benzyl carbamimidothioate hydrobromide]	15%	24%		
Br.N#Cc1ccc(CNC(=O)c2cc(Br)ccc2CSC(=N)N)cc1 [Compound 103, 4-Bromo-2-((4-cyanobenzyl)carbamoyl)benzyl carbamimidothioate hydrobromide]	22%	18%		can suppress tumor growth
Clc1cc(CSC2=NCN(CCc3ccccc3)CN2)c(CSC2=NCN(CCc3ccccc3)CN2)cc1Cl [Compound 37, 6,6′-(((4,5-Dichloro-1,2-phenylene)bis(methylene))bis(sulfanediyl))bis(3-phenethyl-1,2,3,4-tetrahydro-1,3,5-triazine)]	< 7%	-9%		
